Results taken from patent publication US5416070A, “Composition for macrophage activation” (ImmunoTherapeutics, Inc., priority 1990, dated 1995).

Legend:
[1] = test system: human peripheral blood monocytes; assay: Activation of monocytes in vitro measured by production of tumor necrosis factor (ELISA); format: cell-based; settings: for TNF (pg/ml) at given Concentration of Compound: 24 Hours
Procedure: (§1) Human peripheral blood monocytes were isolated by density gradient centrifugation as noted in Example 13. The cell number was adjusted to 5×10^5 cells per ml in RPM 1640 media containing 5% human AB negative serum. One ml containing 5×10^5 cells were placed in individual wells of a 24-well Plastek tissue culture plate. Various drugs in a volume of 0.5 ml were added at time zero. The cells were incubated at 37° C. in a 5% CO2 atmosphere. Aliquots (0.1 ml) of the supernatant were removed at 24 hours and frozen at -80° C. These samples were subsequently assayed for tumor necrosis factor (TNF) activity using a commercially available ELISA Assay from T-Cell Sciences (Cambridge, Mass.).
Human peripheral blood monocytes were isolated by density gradient centrifugation as described in Example 13. The cells were plated in 24-well microliter plates as described in Example 33. The compounds Were prepared in liposomes as described in Example 10, and assayed for TNF production, as described in Example 33. The results are set forth in Table 5, and show significant levels of TNF compared to controls.
as §1, with “of” for “of a”, “zero. The compounds were also formulated in liposomes as described in Example 10, and added in a volume of 0.5 ml to individual wells of a 24-well Plastek tissue culture plate.” for “zero.”, “-20°” for “-80°”, “TNF as described in Example 33 and Interleukin-1-beta (IL-1β)” for “tumor necrosis factor (TNF) activity”, “kit” for “Assay”, “Cistron (Pine Brook, N.J.).” for “T-Cell Sciences (Cambridge, Mass.).”

[2] = test system: Balb/c mice; assay: Adjuvant activity on antibody producing cells: plaque forming units per spleen after SRBC immunization; format: in vivo
Procedure: The efficacy of the compound of the invention in inducing antibody response was evaluated in an immuno-compromised model using aged Balb/c mice and in normal mice using a suboptimal dose of the immunogen.
[…] The spleen was removed on day 4 and assayed for plaque forming units.
The results (Table 1) indicated a total of 66×10^3 plaque forming units (PFU) per spleen for controls, 198×10^3 PFU per spleen for mice receiving SRBC mixed with 0.1 mg MDP and 442×10^3 PFU for mice receiving SRBC mixed with 0.1 mg. of a compound of the invention IIA. Similarly, young Balb/c mice were immunized intraperitoneally with a suboptimal dose of SRBC (1×10^7 cells) in saline or mixed with 0.01 of 0.1 mg of MDP or IIA.

[3] = test system: Meth A sarcoma; assay: Effect with lipopolysaccharide on growth of Meth A sarcoma in mice; format: in vivo
Procedure: BALB/C mice 7-8 weeks of age were injected subcutaneously with Meth A sarcoma (1×10^6 cells) and treated intravenously on day 8 with 10 μg of lipopolysaccharide (LPS) from Salmonella typhimurium ReG 30/21 alone or combined with 1 or 10 μg of MDP or Compound IIA. Tumor growth was compared on day 6 following therapy.
The animals were followed and the percent cured determined at 60 days post-injection.

[4] = test system: human peripheral blood monocytes; assay: Activation of monocytes in vitro measured by production of Interleukin-1-beta (ELISA); format: cell-based; settings: 24 Hours
Procedure: as §1, with “of” for “of a”, “zero. The compounds were also formulated in liposomes as described in Example 10, and added in a volume of 0.5 ml to individual wells of a 24-well Plastek tissue culture plate.” for “zero.”, “-20°” for “-80°”, “TNF as described in Example 33 and Interleukin-1-beta (IL-1β)” for “tumor necrosis factor (TNF) activity”, “kit” for “Assay”, “Cistron (Pine Brook, N.J.).” for “T-Cell Sciences (Cambridge, Mass.).”

[5] = test system: Human peripheral blood mononuclear cells; assay: Activation of monocytes in vitro measured by in vitro tumor cell cytotoxicity; format: cell-based
Procedure: Human peripheral blood mononuclear cells were isolated by density gradient centrifugation on 46% Percoll. 1×10^5 of the mononuclear cells were plated onto Falcon microliter plates and allowed to adhere for two hours. The non-adherent cells were removed and fresh media added. The cells were allowed to incubate for 24 hours after which various concentrations of the drug either alone or incorporated in liposomes was added. After 24 hours, the plates were washed and 1×10^4 I^125 labelled target cells were added. Following an additional 72 hours of coincubation, the plates were washed and the residual radioactivity determined. The specific cytotoxicity was calculated from the formula: [formula] The results of cytotoxicity assay of various compounds alone or incorporated in liposomes at various concentrations is given in Table 6.

[6] = test system: Meth A sarcoma; assay: Antitumor activity in saline in the Meth A sarcoma; format: in vivo, mice
Procedure: BALB/C female mice, age 7 weeks, were injected subcutaneously with 1×10^6 Meth A tumor cells. Eight days later the animals were treated intravenously with either saline (control) or Compound IIA at a dose of 1, 10, or 100 micrograms (μg). Each group consisted of 4 animals. Tumor measurements were taken every 2 days for 10 days and the mice followed for 60 days until cured or death due to tumor occurred.

[7] = 1.0 μg combined with 10 μg LPS i.v. on day 8
[8] = 10 μg combined with 10 μg LPS i.v. on day 8

CCCCCCCCCCCCCCCC(=O)OCC(COC(=O)C(C)NC(=O)CCC(NC(=O)C(C)NC(=O)C(C)OC1C(NC(C)=O)C(O)OC(CO)C1OC1OC(CO)C(O)C(O)C1NC(C)=O)C(N)=O)OC(=O)CCCCCCCCCCCCCCC [Compound IIA, 4-O-[2-acetamido-2-deoxy-β-D-glucopyranosyl]-2-acetamido-2-deoxy-3-O-[D-2-propanoyl-L-alanyl-D-isoglutaminyl-L-alanyl-1,2-dipalmitoyl-sn-glycerol]-D-glucopyranose]
TNF Level ([1]; Experiment 1, free drug in saline 0.1 μg/ml, 24 hours): 1760 pg/mL
TNF Level ([1]; Experiment 1, free drug in saline 1.0 μg/ml, 24 hours): 1600 pg/mL
TNF Level ([1]; Experiment 1, free drug in saline 10.0 μg/ml, 24 hours): 4550 pg/mL
TNF Level ([1]; Experiment 2, free drug in saline 0.1 μg/ml, 24 hours): 1450 pg/mL
TNF Level ([1]; Experiment 2, free drug in saline 1.0 μg/ml, 24 hours): 1580 pg/mL
TNF Level ([1]; Experiment 2, free drug in saline 10.0 μg/ml, 24 hours): 1630 pg/mL
TNF Level ([1]; Experiment 3, free drug in saline 0.1 μg/ml, 24 hours): 1450 pg/mL
TNF Level ([1]; Experiment 3, free drug in saline 1.0 μg/ml, 24 hours): 1650 pg/mL
TNF Level ([1]; Experiment 3, free drug in saline 10.0 μg/ml, 24 hours): 1800 pg/mL
TNF Level ([1]; Table 5, compound incorporated in liposomes, 0.1 μg/ml): 1270 pg/mL
TNF Level ([1]; Table 5, compound incorporated in liposomes, 1.0 μg/ml): 850 pg/mL
TNF Level ([1]; Table 5, compound incorporated in liposomes, 10.0 μg/ml): 1050 pg/mL
TNF (pg/ml) at given Concentration of Compound ([1]; Table 7, Experiment 1, 0.01 μg/ml): 650 pg/mL
TNF (pg/ml) at given Concentration of Compound ([1]; Table 7, Experiment 1, 0.1 μg/ml): 460 pg/mL
TNF (pg/ml) at given Concentration of Compound ([1]; Table 7, Experiment 1, 1.0 μg/ml): 620 pg/mL
TNF (pg/ml) at given Concentration of Compound ([1]; Table 7, Experiment 1, 10.0 μg/ml): 500 pg/mL
TNF (pg/ml) at given Concentration of Compound ([1]; Table 9, Experiment 2, 0.1 μg/ml): 1400 pg/mL
TNF (pg/ml) at given Concentration of Compound ([1]; Table 9, Experiment 2, 1.0 μg/ml): 1700 pg/mL
TNF (pg/ml) at given Concentration of Compound ([1]; Table 9, Experiment 2, 10.0 μg/ml): 1070 pg/mL
PFU ×10^3 ([2]; 3 months old mice, SRBC inoculum 1 × 10^7 i.p., 0.01 mg/mouse): 184 ×10^3
PFU ×10^3 ([2]; 3 months old mice, SRBC inoculum 1 × 10^7 i.p., 0.1 mg/mouse): 468 ×10^3
PFU ×10^3 ([2]; 18 months old mice, SRBC inoculum 1 × 10^8 i.p., 0.1 mg/mouse, spleen day 4): 442 ×10^3
plaque forming units (PFU) per spleen ([2]; aged Balb/c mice (18 months), SRBC mixed with 0.1 mg): 442×10^3 PFU per spleen
Complete Regression at Day 60 [3, 7]: 50%
Percent Change in Average Tumor Area 6 Days Post Treatment [3, 7]: -56%
Complete Regression at Day 60 [3, 8]: 100%
Percent Change in Average Tumor Area 6 Days Post Treatment [3, 8]: -67%
interaction with LPS ([3]; Table 3, Meth A sarcoma): synergistic activity
IL-1-beta (pg/ml) at given Concentration of Compound ([4]; Table 8, Experiment 1, 0.01 μg/ml): 260 pg/mL
IL-1-beta (pg/ml) at given Concentration of Compound ([4]; Table 8, Experiment 1, 0.1 μg/ml): 220 pg/mL
IL-1-beta (pg/ml) at given Concentration of Compound ([4]; Table 8, Experiment 1, 1.0 μg/ml): 244 pg/mL
IL-1-beta (pg/ml) at given Concentration of Compound ([4]; Table 8, Experiment 1, 10.0 μg/ml): 264 pg/mL
Cytotoxicity ([5]; PC/PS liposomes (7:3), 0.1 μg/ml): 1.0%
Cytotoxicity ([5]; PC/PS liposomes (7:3), 1.0 μg/ml): 8.0%
Cytotoxicity ([5]; PC/PS liposomes (7:3), 10.0 μg/ml): 12.0%
Cytotoxicity ([5]; no formulation given (drug alone), 0.1 μg/ml): 5.0%
Cytotoxicity ([5]; no formulation given (drug alone), 1.0 μg/ml): 4.0%
Cytotoxicity ([5]; no formulation given (drug alone), 10.0 μg/ml): 3.0%
animals exhibiting complete regression of tumor ([6]; 100 μg i.v.): one of four
decrease in tumor growth ([6]; day 6 after therapy, single i.v. dose of 100 μg): 50%
